The test deals with human bronchial epithelial cells, CFTR corrector, plate reader. The test can be described thus: rescue of ΔF508 CFTR function, airway epithelium – human bronchial epithelial cells, plate reader, cherry-pick, two tests, dose response (AID 743267).
[1] abbreviates: measured here: test 2 replicate run.

Where “and” joins values, the source holds several entries; their conditions need not be identical. Equal values may be shown once.

The term AC50 denotes the concentration at which the activity in the assay is half-maximal. Take `Cc1cc2nnc(SCC(=O)NCc3ccco3)n2c2ccccc12`: the AC50 under setting [1] was 6.63 µM.
On the same count and under the same terms, the figure for `C[C@@H](N)Cc1cnc[nH]1` is 20.1 µM.
Still for that read-out and setting: the figure for `COc1cccc2c1C(=O)c1c(O)c3c(c(O)c1C2=O)CC(O)(C(=O)CO)CC3OC1CC(N(C)C)C(O)C(C)O1` (centres undefined) is 10.1 µM; for `NS(=O)(=O)c1cc(Cl)c(Cl)c(S(N)(=O)=O)c1` it is 0.0468 µM.
The same measure, in the same setting: in the case of `CC/C=C/CC(=O)N[C@@H](c1ccccc1)[C@@H](O)C(=O)O[C@H]1C[C@@]2(O)[C@@H](OC(=O)c3ccccc3)C3[C@](C)(C(=O)[C@H](OC(C)=O)C(=C1C)C2(C)C)[C@@H](O)C[C@H]1OC[C@@]31OC(C)=O` (some centres undefined) it was 3.4 µM; in that of `CCOc1ccc(C(=O)COC(=O)Cc2n[nH]c(=O)c3ccccc23)cc1`, 2.53 µM.
`CC(=O)Nc1ccc(S(=O)(=O)Nc2cccc(-c3nc4cc(C)ccc4o3)c2)cc1` displayed an AC50 under setting [1] of 8.92 µM.
As for `Cc1cccc(NC(=S)N/N=C/c2cccc(O)c2)c1C`, the AC50 under setting [1] is 3.86 µM.
On the same count and under the same terms, in the case of `CC(=O)c1ccc(Nc2cc(C)nc3c(C)cc(C)cc23)cc1` it was 3.11 µM.
Same read-out and setting: the figure for `CCOC1=C2[C@@H](CN(S(=O)(=O)c3ccc(C)cc3)[C@H]2c2ccc(Cl)cc2)[C@H]2C(=O)N(c3ccccc3)C(=O)[C@H]2C1` is greater than 50 µM.
Under setting [1], `N#Cc1nc(NCC(F)F)nc(Nc2cc(F)cc(F)c2)n1` yielded an AC50 of 16 µM.
The same measure, in the same setting: the figure for `Cc1cccc(NC(=O)CN2CCN(C(=O)CN3C(=O)NC4(CC(C)CC(C)(C)C4)C3=O)CC2)c1C` (centres undefined) is 2.69 µM; for `COc1ccc(NC(=O)C2(C)Cc3c(-c4cccc(NC(C)=O)c4)ccnc3O2)cc1` (centres undefined) it is 4.58 µM; for `COc1nc(-c2ccccc2)cc(-c2ccc3c(c2)OCO3)c1C#N` it is 3.66 µM.
Still for that read-out and setting: the figure for `COc1ccccc1Nc1c2c(nc3ccccc13)CCC2` is 6.89 µM; for `COc1ccc(OC)c(N/C(N)=N/c2nc(C)cc(C)n2)c1` it is 39.4 µM; for `O=C(N/N=C/c1c(O)ccc2ccccc12)c1ccc(Br)o1` it is 6.34 µM.
In the case of `C=C1SC(Nc2c(C)cc(C)cc2C)=NC12CCCCC2`, under setting [1], the AC50 was found to be 5.37 µM. The AC50 values of the last two compounds are within 1.5-fold of each other.
On the same count and under the same terms, in the case of `CN1/C(=C\C=C2/SC(=S)N(CC(=O)O)C2=O)C(C)(C)c2ccccc21` it was 16 µM; in that of `CN(CCOc1ccc(Cl)cc1)C(=O)c1cccc(S(=O)(=O)N2CCN(c3ccccc3)CC2)c1`, 16 µM; in that of `CN(C)CCNC(=O)c1ccc(Cl)c2cc3ccccc3nc12`, 5.35 µM.
Still for that read-out and setting: the figure for `COc1cc(/C=C2/SC(=S)N(Cc3ccccc3)C2=O)cc(Cl)c1O` is 12.1 µM.
Under setting [1], `CO[C@@]12[C@@H]3N[C@@H]3CN1C1=C(C(=O)C(N)=C(C)C1=O)[C@@H]2COC(N)=O` registered an AC50 of 11.5 µM.
On the same count and under the same terms, in the case of `CC1(C(=O)NCc2ccccc2)Cc2c(-c3ccc(C(N)=O)cc3)ccnc2O1` (centres undefined) it was 5.22 µM.
The same measure, in the same setting: in the case of `COCOc1cccc(CN2CCC2(C)C(=O)Nc2ccc(C)c(O)c2)c1` (centres undefined) it was greater than 50 µM; in that of `COc1ccccc1NC(=O)C(=O)NCC(c1ccco1)N1CCc2ccccc21` (centres undefined), greater than 50 µM.
For the setting “measured here: test 1 replicate run”, `C[C@@H]1CN([C@H](C)CO)S(=O)(=O)c2ccc(C#CC3CC3)cc2O[C@H]1CN(C)Cc1ccccn1` returned an AC50 of 11.8 µM.
In turn, `CCOC1=C2CN(S(=O)(=O)c3ccc(C)cc3)CC[C@@H]2N(S(=O)(=O)c2ccc(C)cc2)[C@H](c2ccccc2)C1` registered an AC50 under setting [1] of 4.47 µM.
Still for that read-out and setting: in the case of `O=C(NN=C1CCCC1)c1[nH]c2ccc(Cl)cc2c1-c1ccccc1` it was 6.72 µM; in that of `CC(=O)O[C@H]1C(=O)[C@@]2(C)[C@H]([C@H](OC(=O)c3ccccc3)[C@]3(O)C[C@H](OC(=O)[C@H](O)C(NC(=O)c4ccccc4)c4ccccc4)C(C)=C1C3(C)C)[C@]1(OC(C)=O)CO[C@@H]1C[C@@H]2O` (some centres undefined), 3.59 µM.
Same read-out and setting: in the case of `Cc1nn(C)c(C)c1/C=C/C(=O)O` it was greater than 50 µM; in that of `COc1ccc(OC)c2[nH]c(C(=O)N/N=C/c3ccccc3O)cc12`, 2.6 µM.
Still for that read-out and setting: in the case of `Cc1ccc(S(=O)(=O)N2CCOCC2)cc1NC(=O)CSc1n[nH]c(N)n1` it was greater than 50 µM; in that of `C[n+]1c2cc(N)ccc2cc2ccc(N)cc21`, 3.52 µM and 2.96 µM.

For the origin of these results see PubChem BioAssay AID743267 (Broad Institute, 2014).
